# From ChEMBL document CHEMBL6115013, “Design, synthesis, and biological evaluation of novel azaspirooxindolinone derivatives as potent inhibitors of ITK and BTK-dependent cancers” (Bioorg Med Chem, 2025)
# Experiments:
# K562 = assay: Cytotoxicity against BTK positive human K562 cells assessed as inhibition of cell growth by MTS assay
# [1] = Cytotoxicity against ITK/BTK null human MRC5 cells assessed as inhibition of cell growth by MTS assay; format: toxicity, cell-based
# Ramos [2] = assay: Cytotoxicity against BTK positive human Ramos cells assessed as inhibition of cell growth by MTS assay
# CCRF-CEM [3] = assay: Cytotoxicity against ITK positive human CCRF-CEM cells assessed as inhibition of cell growth by MTS assay
# [4] = Cytotoxicity against ITK/BTK null human BJ cells assessed as inhibition of cell growth by MTS assay; format: toxicity, cell-based
# A549 = assay: Cytotoxicity against ITK/BTK null human A549 cells assessed as inhibition of cell growth by MTS assay
# HCT-116 = assay: Cytotoxicity against ITK/BTK null human HCT-116 cells assessed as inhibition of cell growth by MTS assay
# Jurkat [5] = assay: Cytotoxicity against ITK positive human Jurkat cells assessed as inhibition of cell growth by MTS assay
# U2OS = assay: Cytotoxicity against ITK/BTK null human U2OS cells assessed as inhibition of cell growth by MTS assay
# [6] = biological target: T1, Tyrosine-protein kinase ITK/TSK (Homo sapiens, UniProt Q08881); assay: Inhibition of human ITK using poly (Glu:Tyr) as substrate in presence of ATP by ADP-glo kinase assay
# T1 sequence (Q08881 whole entry): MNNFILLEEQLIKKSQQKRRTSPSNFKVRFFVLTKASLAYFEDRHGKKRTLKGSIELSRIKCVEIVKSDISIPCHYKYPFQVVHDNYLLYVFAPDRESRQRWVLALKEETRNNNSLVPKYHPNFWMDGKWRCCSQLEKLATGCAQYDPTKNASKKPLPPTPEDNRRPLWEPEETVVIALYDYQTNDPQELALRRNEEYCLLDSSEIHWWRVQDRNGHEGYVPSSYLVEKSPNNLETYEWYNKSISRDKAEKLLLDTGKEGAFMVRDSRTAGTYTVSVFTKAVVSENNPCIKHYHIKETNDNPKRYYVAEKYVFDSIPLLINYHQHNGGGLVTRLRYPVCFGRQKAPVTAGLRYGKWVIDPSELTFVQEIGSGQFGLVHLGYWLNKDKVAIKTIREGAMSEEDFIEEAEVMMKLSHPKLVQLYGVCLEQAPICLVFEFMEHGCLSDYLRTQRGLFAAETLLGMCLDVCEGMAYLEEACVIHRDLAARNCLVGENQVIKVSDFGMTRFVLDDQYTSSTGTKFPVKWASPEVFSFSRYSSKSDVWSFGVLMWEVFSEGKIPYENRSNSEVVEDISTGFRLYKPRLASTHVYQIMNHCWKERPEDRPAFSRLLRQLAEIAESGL
# CCRF-CEM [7] = assay: Antiproliferative activity against human CCRF-CEM cells; format: functional, cell-based
# CEM-DNR = assay: Antiproliferative activity against human CEM-DNR cells; format: functional, cell-based
# Ramos [8] = assay: Antiproliferative activity against human Ramos cells; format: functional, cell-based
# [9] = Antiproliferative activity against human K562-Tax cells; format: functional, cell-based
# Jurkat [10] = assay: Antiproliferative activity against human Jurkat cells; format: functional, cell-based
# MOLT-4 = assay: Antiproliferative activity against human MOLT-4 cells; format: functional, cell-based
IC50 [6] [µM],IC50 (CCRF-CEM [7]) [µM],IC50 (Ramos [8]) [µM],IC50 (Jurkat [10]) [µM],IC50 (MOLT-4) [µM],SMILES,IC50 (K562) [µM],IC50 [1] [µM],IC50 (Ramos [2]) [µM],IC50 (CCRF-CEM [3]) [µM],IC50 [4] [µM],IC50 (A549) [µM],IC50 (HCT-116) [µM],IC50 (Jurkat [5]) [µM],IC50 (U2OS) [µM],IC50 (CEM-DNR) [µM],IC50 [9] [µM]
–,–,–,–,–,O=C(N1CCC2(CC1)C(=O)Nc1ncc(-c3ccc4c(c3)OCO4)cc12)C1(O)CC1,> 50,> 50,> 50,> 50,> 50,> 50,> 50,> 50,> 50,–,–
–,–,–,–,–,N#CC1(C(=O)N2CCC3(CC2)C(=O)Nc2ncc(-c4ccc5c(c4)OCO5)cc23)CC1,> 50,> 50,1.42,> 50,> 50,> 50,> 50,50,> 50,–,–
> 10,–,–,–,–,C=C(F)C(=O)N1CCC2(CC1)C(=O)Nc1ncc(-c3ccc4c(c3)OCO4)cc12,> 50,> 50,1.38,14.1,> 50,> 50,> 50,4.16,18.9,–,–
–,–,–,–,–,O=C1Nc2ncc(-c3ccc4c(c3)OCO4)cc2C12CCN(C(=O)C1(C(F)(F)F)CC1)CC2,> 50,> 50,1.82,19.5,> 50,> 50,> 50,29.4,> 50,–,–
–,–,–,–,–,C=CC(=O)N1CCC[C@@H](n2nc(-c3ccc(Oc4ccccc4)cc3)c3c(N)ncnc32)C1 [IBRUTINIB],–,27.9,–,–,28.9,–,–,–,–,–,–
–,–,–,–,–,CCOC(=O)C(C)(C)C(=O)N1CCC2(CC1)C(=O)Nc1ncc(-c3ccc4c(c3)OCO4)cc12,> 50,> 50,> 50,> 50,> 50,> 50,> 50,29.2,> 50,–,–
–,–,–,–,–,CC(C)(C#N)C(=O)N1CCC2(CC1)C(=O)Nc1ncc(-c3ccc4c(c3)OCO4)cc12,> 50,> 50,10.1,14.3,> 50,> 50,> 50,9.36,> 50,–,–
0.91,–,–,–,–,CC(F)(F)C(=O)N1CCC2(CC1)C(=O)Nc1ncc(-c3ccc4c(c3)OCO4)cc12,> 50,> 50,3.06,17.2,> 50,> 50,> 50,3.58,> 50,–,–
–,25.5,–,–,–,O=C(N1CCC2(CC1)C(=O)Nc1ncc(-c3ccc4c(c3)OCO4)cc12)C1(CF)CC1,–,–,–,–,–,–,–,–,–,–,–
–,–,–,–,–,O=C(O)C1(C(=O)N2CCC3(CC2)C(=O)Nc2ncc(-c4ccc5c(c4)OCO5)cc23)CC1,> 50,> 50,> 50,> 50,> 50,> 50,> 50,> 50,> 50,–,–
–,7.26,24.3,2.25,–,O=C(N1CCC2(CC1)C(=O)Nc1ncc(-c3ccc4c(c3)OCO4)cc12)C1(F)CC1,–,–,–,–,–,–,–,–,–,11.9,6.09
–,–,–,–,–,C=CC(=O)N1CCC2(CC1)C(=O)Nc1ncc(-c3ccc4c(c3)OCO4)cc12,> 50,> 50,> 50,13.5,> 50,> 50,> 50,> 50,> 50,–,–
–,–,–,–,–,CC(C)(O)C(=O)N1CCC2(CC1)C(=O)Nc1ncc(-c3ccc4c(c3)OCO4)cc12,> 50,> 50,> 50,> 50,> 50,> 50,> 50,> 50,> 50,–,–
–,–,–,–,–,O=C(N1CCC2(CC1)C(=O)Nc1ncc(-c3ccc4c(c3)OCO4)cc12)C(F)(F)F,> 50,> 50,> 50,20.7,> 50,> 50,> 50,10.8,> 50,–,–
–,> 50,> 50,> 50,> 50,COC(=O)C1(C(=O)N2CCC3(CC2)C(=O)Nc2ncc(-c4cc(OC)c(OC)c(OC)c4)cc23)CC1,–,–,–,–,–,–,–,–,–,> 50,> 50
–,3.79,16.4,2.49,–,CC(C)(F)C(=O)N1CCC2(CC1)C(=O)Nc1ncc(-c3ccc4c(c3)OCO4)cc12,–,–,–,–,–,–,–,–,–,6.01,3.68
–,–,–,–,–,O=C1Nc2ncc(-c3ccc4c(c3)OCO4)cc2C12CCN(S(=O)(=O)C(F)(F)F)CC2,> 50,> 50,> 50,> 50,> 50,> 50,> 50,> 50,> 50,–,–
–,15.2,23.9,14.8,28.8,COC(=O)C1(C(=O)N2CCC3(CC2)C(=O)Nc2ncc(-c4ccc5c(c4)OCO5)cc23)CC1,–,–,–,–,–,–,–,–,–,20.4,12.5
